What was measured:
Assay type in all cases: functional
[1] = system: Aphis craccivora; assay: Insecticidal activity against Aphis craccivora (cowpea aphid) assessed as mortality at 500 mg/L
[2] = system: Nilaparvata lugens; assay: Ratio of imidacloprid LC50 to compound LC50 for imidacloprid-resistant Nilaparvata lugens (brown planthopper)
[3] = system: Nilaparvata lugens; assay: Insecticidal activity against imidacloprid-sensitive Nilaparvata lugens (brown planthopper) assessed as drug concentration required to induce mortality per pest
[4] = system: Nilaparvata lugens; assay: Insecticidal activity against imidacloprid-resistant Nilaparvata lugens (brown planthopper) assessed as drug concentration required to induce mortality per pest
[5] = system: Aphis craccivora; assay: Insecticidal activity against Aphis craccivora (cowpea aphid) assessed as mortality

Compound	mortality at 500 µg/mL [1] [%]	further results
O=[N+]([O-])C1=C2N(Cc3ccc(Cl)nc3)CCN2[C@H](c2ccco2)[C@@](C2=NCCN2Cc2ccc(Cl)nc2)([N+](=O)[O-])[C@H]1c1ccco1	87	
O=[N+]([O-])C1=C2N(Cc3ccc(Cl)nc3)CCN2[C@H](c2ccco2)[C@@](C2=NCCN2Cc2ccc(Cl)nc2)([N+](=O)[O-])[C@@H]1c1ccco1		RatioLC50 [2]: 10
O=[N+]([O-])C1=C2N(Cc3ccc(Cl)nc3)CCN2[C@@H]2CC[C@H]1O2		LC50 [3]: 0.0742 ng; RatioLC50 [2]: 50; LC50 [4]: 0.4925 ng
Cl.O=[N+]([O-])/C(=C\c1ccco1)C1=NCCN1Cc1ccc(Cl)nc1		RatioLC50 [2]: 30; LC50 [4]: 0.7312 ng
CN1CC([N+](=O)[O-])=C2N(Cc3ccc(Cl)nc3)C[C@H]3CCC[C@H]3N2C1	30	
O=[N+]([O-])C1=C2N(Cc3ccc(Cl)nc3)CCN2[C@H]2CCC[C@@H]1O2	87	LC50 [3]: 4.144 ng; LC50 [4]: 18.9795 ng
CN1CC([N+](=O)[O-])=C2N(CC3COCO3)CCN2C1 (centres undefined)	0	
CCN1CC([N+](=O)[O-])=C2N(CC3COCO3)CCN2C1 (centres undefined)	0	
CCCN1CC([N+](=O)[O-])=C2N(CC3COCO3)CCN2C1 (centres undefined)	0	
CC(C)N1CC([N+](=O)[O-])=C2N(CC3COCO3)CCN2C1 (centres undefined)	0	
CCCCN1CC([N+](=O)[O-])=C2N(CC3COCO3)CCN2C1 (centres undefined)	0	
O=[N+]([O-])C1=C2N(CC3COCO3)CCN2CN(CCO)C1 (centres undefined)	0	
O=[N+]([O-])C1=C2N(Cc3ccc(Cl)nc3)C[C@H]3CCC[C@H]3N2CN(CCO)C1 (relative stereo)	30	
CCCCN1CC([N+](=O)[O-])=C2N(Cc3ccc(Cl)nc3)C[C@H]3CCC[C@H]3N2C1 (relative stereo)	30	
CCCN1CC([N+](=O)[O-])=C2N(Cc3ccc(Cl)nc3)C[C@H]3CCC[C@H]3N2C1 (relative stereo)	30	
CC(C)N1CC([N+](=O)[O-])=C2N(Cc3ccc(Cl)nc3)C[C@H]3CCC[C@H]3N2C1 (relative stereo)	30	
CCN1CC([N+](=O)[O-])=C2N(Cc3ccc(Cl)nc3)C[C@H]3CCC[C@H]3N2C1 (relative stereo)	30	
O=[N+]([O-])/N=C1\NCCN1Cc1ccc(Cl)nc1 [IMIDACLOPRID]		LC50 [5]: 31 µM; LC50 [4]: 22.1614 ng
